Assay results from patent US20180117159A1, “Method for producing solid formulations with improved dissolution by annealing with an adjuvant” (priority 2016, published 2018).

Experiments:
Format in all cases: physicochemical
[1] = differential scanning calorimetry of annealed indomethacin-PVP mixtures (absence of melting endotherm = all drug dissolved)
Experimental: Binary physical mixtures of the drug indomethacin and the polymer PVP (polyvinylpyrrolidone K29/32), both used as received, were mixed in various ratios, so the drug weight fraction ranged from 2.5-30% w/w (compared to the total physical mixture). Mixing was done for 15 minutes using a mortar and pestle. Solid solutions were then prepared by annealing and annealing with an adjuvant.
Annealing was done by transferring weighed samples of the physical mixtures into glass vials, which were then stored in an oven without inducing a vacuum at 130° C. for 6 days to equilibrate and allow the indomethacin to distribute and dissolve in the PVP. After annealing, the samples were allowed to cool to room temperature.
Annealing with an adjuvant was done by transferring weighed amounts of the physical mixtures into glass vials, then adding the adjuvant ethanol dropwise to the surface of the physical mixture in each vial in an adjuvant weight equal to approximately 25% of each dry drug-polymer physical mixture sample. No mixing of the adjuvant and physical mixture was done after adding the ethanol drops. The drug, polymer and adjuvant were then allowed to anneal in an oven at 70° C., with some samples annealing for 4 hours, some for 8 hours and some for 12 hours. After annealing with an adjuvant for each specified time, the samples were allowed to cool to room temperature. […]

[2] = dissolution, USP Type II (paddle) apparatus, 150 mg formulation in 500 mL phosphate buffer pH 2.5 at 37° C.; conditions: pH 2.5 buffer, 30 minutes
Experimental: Dissolution experiments were done using a USP Type II (paddle type) apparatus, dissolving 150 mg of formulation in 500 mL of water buffered to a pH of 2.5 using phosphate buffer at 37° C. This corresponded to 15 mg of indomethacin per 500 mL of dissolution medium for the 10% indomethacin formulation, and 30 mg of indomethacin per 500 mL of dissolution medium for the 20% indomethacin formulation. In addition, pure indomethacin was dissolved in a similar USP type II apparatus for 30 minutes for comparison. […]

[3] = solubility of indomethacin in aqueous buffer at pH 2.5 (excess solid, stirred, 20 nm filtered, HPLC)
Experimental: In addition to Examples 1-6, other experiments were done in which the solubility of indomethacin in aqueous buffer at pH 2.5 was determined. This was done by placing an excess amount of indomethacin solid (approximately 100 mg) in 20 mL of the buffer and stirring at a constant temperature of 37° C. for three days, after which an aliquot was taken and filtered through a Watman Anotop-10 20 nm filter, then assayed by HPLC for the dissolved indomethacin concentration in the solution. Subsequently, the temperature of the remaining indomethacin-buffer mixture was raised to approximately 95° C. and kept at that temperature with stirring for an additional 24 hours. After 24 hours, the dissolved indomethacin concentration was again determined by taking an aliquot, filtering through a 20 nm Anotop-10 filter, and assaying by HPLC.

**Q.** For `COc1ccc2c(c1)c(CC(=O)O)c(C)n2C(=O)c1ccc(Cl)cc1` [indomethacin], which “indomethacin concentration in PVP up to which all of the drug dissolved (no melting endotherm by DSC)” value ([1]; annealed with ethanol adjuvant (about 25% of mixture weight) for 12 hours at 70° C.) is on record?
**A.** The value was “approximately 15 % by weight”.

**Q.** And the “indomethacin concentration in PVP up to which all of the drug dissolved (no melting endotherm by DSC)” value ([1]; annealed without an adjuvant for 6 days at 130° C.)?
**A.** The value was “approximately 15 % by weight”.

**Q.** And the “dissolution in the aqueous buffer compared with indomethacin in physical mixtures with PVP” value [2]?
**A.** The value was “much slower”.

**Q.** What about the “estimate for the solubility of indomethacin in the aqueous buffer” value ([3]; 37° C., pH 2.5, estimate from solubility experiment and Example 1 dissolution) of the same compound?
**A.** The value was “one to two”.

**Q.** What about the solubility at 3 days ([3]; aqueous buffer, thermodynamic from solid, pH 2.5, 37° C., after three days stirring, read-out: dissolved indomethacin concentration (solubility) in aqueous buffer) of the same compound?
**A.** The solubility at 3 days was under 1 µg/mL.

**Q.** What about the solubility ([3]; aqueous buffer, thermodynamic from solid, pH 2.5, three days at 37° C. plus an additional day at 95° C., read-out: dissolved indomethacin concentration (solubility) in aqueous buffer) of the same compound?
**A.** Its solubility is about 27 µg/mL.

**Q.** What about the “dissolved indomethacin concentration (solubility) in aqueous buffer” value ([3]; pH 2.5, 37° C., after three days stirring) of the same compound?
**A.** Its value is “below one”.
